Series [1] can be described thus: In vitro liver microsome stability, rat. The series is classed as in vitro ADME. The note with it: liver microsomes, 0.5 mg/mL microsomes, 1 μM compound, NADPH, 37° C., read-out: Rat liver microsomes Half-life T1/2. A digest of the protocol:
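Rat, mouse or human liver microsomes (0.5 mg/mL) in 50 mM K2HPO4 buffer with 1 μM compound, preincubated 5 min at 37° C., reaction started with NADPH. Sampled at 0, 10, 30, 60 and 90 min, quenched in acetonitrile, remaining compound by LC-MS/MS; T1/2 calculated. No-NADPH controls included.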

Series [2] addresses T1, p38 MAPK/ATF2 (Homo sapiens, UniProt Q16539).
T1 construct: purchased Carna Biosciences (p38α); Sino Biological (ATF2) 04-152; 11599-H20B
Description: In vitro activity assay of p38 MAPK/ATF2 (HTRF). The format is biochemical. The note with it: p38α, Human ATF2 Protein, ATP; 35 min at 20° C. How it is done: The inhibitory effect of the compound on p38a-catalyzed ATF2 was evaluated by the HTRF method. The test compound was dissolved in DMSO to obtain a 10 mM stock solution and stored at −20° C. for future use. The initial concentration of the compound was 10 μM, with 0.25% DMSO, 5-fold serial dilution, 8 concentrations, and duplicate wells. The reaction buffer, consisting of 40 mM Tris pH 7.5, 20 mM MgCl2, 0.1 mg/mL BSA, and 50 μM DTT, was used to prepare 3.5×p38α (MAPK14, Carna Biosciences, 04-152) protein working solution, 3.5×Human ATF2 Protein (Sino Biological, 11599-H20B) working solution, and 3.5×ATP working solution. The reaction was terminated with 10 mM EDTA. The final 14 μL reaction system was performed in a 96-well plate (cisbio, 66PL96025), containing 0.29 ng/μL p38a, […] Human ATF2 Protein, and 25 µM ATP. After reacting at 20° C. for 35 min, the pre-prepared antibody solution (cibio, 63ADK015PEG, Phospho-ATF2 Eu Cryptate antibody, Phospho-ATF2 d2 antibody, diluted 40-fold with Detection buffer) was added to each well and incubated overnight at room temperature. The samples were then measured using a microplate reader (HTRF compatible reader). The concentration-effect curve was fitted using GraphPad Prism 8 software, and the compound concentration resulting in 50% inhibition, IC50, was calculated.

For `CNC(=O)c1cccc(-c2ncc(C)c(-n3c(C)cc(OCc4ncc(F)cc4F)c(Cl)c3=O)c2F)c1` [Compound 31-P1], the half-life at 1 μM in series [1] was 2.76 h. The IC50 in series [2] came to 1850 nM.
